# Read-outs that look alike come from different tables or passages of the source.
# Columns and labels:
# [1] = system: methicillin-susceptible S. aureus (MSSA), MRSA and mutants thereof; experiment: MIC measurement, Test Example 3 (MSSA, MRSA and sequential gyrA/grlA quinolone-resistant mutants); format: cell-based, Staphylococcus aureus; settings: Staphylococcus aureus
# Summary of the method: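 Broth microdilution in cation-adjusted Mueller Hinton broth: inoculum from overnight TSB cultures set to A578 0.3, then 500-fold diluted and added 1:1 to serial compound concentrations.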
# [2] = system: MRSA, CA-MRSA and MSSA of Staphylococcus aureus; experiment: MIC measurement, Test Example 4 (MRSA, CA-MRSA and MSSA strains); format: cell-based; settings: Staphylococcus aureus
# Summary of the method: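 S. aureus strains (FDA209P control) grown overnight in TSB at 37° C, resuspended in CAMHB, adjusted to A578 0.3 and diluted 500-fold. Equal volume added to CAMHB with serial compound concentrations, incubated statically overnight at 37° C. MIC read visually as lowest concentration without turbidity.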
# [3] = system: VISA clinical isolates of MRSA (VI-MRSA) and of MSSA (VI-MSSA); experiment: microbe, parasite or virus in culture; format: cell-based, Staphylococcus aureus
# Summary of the method: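 Strains were grown overnight at 37° C in TSB, adjusted in CAMHB to 0.3 absorbance at 578 nm and diluted 500-fold before equal-volume addition to compound dilutions.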
# [4] = system: Enterococcus faecalis; experiment: MIC measurement, Test Example 6 (enterococcus); format: cell-based; settings: Enterococcus faecalis, read-out: MIC
# Summary of the method: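 Broth microdilution in cation-adjusted Mueller Hinton: inoculum from overnight TSB cultures adjusted to absorbance 0.3 at 578 nm and diluted 500×. Compounds at various concentrations; static 37° C overnight incubation. MIC = lowest concentration without visible turbidity; strains include two vancomycin-resistant NCTC isolates.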
smiles,measurement,setting,value
"C[C@@H]1CN(c2c(F)c(N)c3c(=O)c(C(=O)O)cn(C4CC4)c3c2F)C[C@H](C)N1 [SPFX, sparfloxacin]",MIC,"[1]; FDA209P / MRSA / MSSA, FDA209P (MSSA), control, read-out: MIC",≤ 0.063 µg/mL
same,MIC,"[1]; MR5867 (MRSA), clinical isolate parent strain, no mutation",≤ 0.063 µg/mL
same,MIC,"[1]; MR5867-1, first-step quinolone-resistant mutant, grlA E84K",≤ 0.063 µg/mL
same,MIC,"[1]; MS5935 (MSSA), clinical isolate parent strain, no mutation, read-out: MIC",≤ 0.063 µg/mL
same,MIC,"[1]; MS5935-1, first-step quinolone-resistant mutant, grlA S80F",≤ 0.063 µg/mL
same,MIC,"[1]; MS5935-3, third-step mutant, further grlA E84K",32 µg/mL
same,MIC,"[1]; MS5952 (MSSA), clinical isolate parent strain, no mutation, read-out: MIC",≤ 0.063 µg/mL
same,MIC,"[2]; ATCC 29213 / MRSA / MSSA, ATCC 29213, MSSA",≤ 0.063 µg/mL
same,MIC,"[2]; COL, MRSA",0.25 µg/mL
same,MIC,"[2]; FDA209P / MRSA / MSSA, FDA209P, MSSA",≤ 0.063 µg/mL
same,MIC,"[2]; ISA12-1, MRSA",0.125 µg/mL
same,MIC,"[2]; ISA12-2, MRSA",0.125 µg/mL
same,MIC,"[2]; ISA35-1, MRSA",0.125 µg/mL
same,MIC,"[2]; ISA37-1, MSSA",0.125 µg/mL
same,MIC,"[2]; ISA49-1, MSSA",≤ 0.063 µg/mL
same,MIC,"[2]; ISA51-1, MSSA",0.125 µg/mL
same,MIC,"[2]; ISA56-3, MRSA",0.125 µg/mL
same,MIC,"[2]; ISA58-1, MRSA",0.5 µg/mL
same,MIC,"[2]; ISA62-1, MRSA",≤ 0.063 µg/mL
same,MIC,"[2]; ISA73-1, MSSA",≤ 0.063 µg/mL
same,MIC,"[2]; KBSA32, MRSA",≤ 0.063 µg/mL
same,MIC,"[2]; KBSA34, MRSA",0.125 µg/mL
same,MIC,"[2]; KBSA72, MRSA",128 µg/mL
same,MIC,"[2]; KBSA96, MRSA",16 µg/mL
same,MIC,"[2]; KBSA171, MRSA",16 µg/mL
same,MIC,"[2]; KSA24, MRSA",16 µg/mL
same,MIC,"[2]; KSA31, MRSA",8 µg/mL
same,MIC,"[2]; KSA36, MRSA",128 µg/mL
same,MIC,"[2]; MRSA / MSSA / NCTC 8325, NCTC 8325, MSSA",0.125 µg/mL
same,MIC,"[2]; MRSA / MSSA / USA300, USA300 FPR3757, CA-MRSA",8 µg/mL
same,MIC,"[2]; MW2, CA-MRSA",≤ 0.063 µg/mL
same,MIC,"[2]; N315, MRSA",≤ 0.063 µg/mL
same,MIC,"[3]; Staphylococcus aureus, 99/3700-W, VI-MRSA, The United Kingdom",16 µg/mL
same,MIC,"[3]; Staphylococcus aureus, 99/3759-V, VI-MRSA, The United Kingdom",16 µg/mL
same,MIC,"[3]; Staphylococcus aureus, 28160, VI-MRSA, South African Republic",32 µg/mL
same,MIC,"[3]; Staphylococcus aureus, 98141, VI-MRSA, France",16 µg/mL
same,MIC,"[3]; Staphylococcus aureus, A7 (JCSC4842), VI-MRSA, Taiwan",8 µg/mL
same,MIC,"[3]; Staphylococcus aureus, AMC11094, VI-MRSA, Korea",32 µg/mL
same,MIC,"[3]; Staphylococcus aureus, B7 (JCSC4852), VI-MRSA, Taiwan",8 µg/mL
same,MIC,"[3]; Staphylococcus aureus, BR1, VI-MRSA, Brazil",32 µg/mL
same,MIC,"[3]; Staphylococcus aureus, BR2, VI-MRSA, Brazil",32 µg/mL
same,MIC,"[3]; Staphylococcus aureus, BR3, VI-MRSA, Brazil",32 µg/mL
same,MIC,"[3]; Staphylococcus aureus, BR4, VI-MRSA, Brazil",16 µg/mL
same,MIC,"[3]; Staphylococcus aureus, BR5, VI-MRSA, Brazil",16 µg/mL
same,MIC,"[3]; Staphylococcus aureus, HIP06297, VI-MRSA, America",8 µg/mL
same,MIC,"[3]; Staphylococcus aureus, HIP06854, VI-MRSA, America",16 µg/mL
same,MIC,"[3]; Staphylococcus aureus, HIP07920, VI-MRSA, America",16 µg/mL
same,MIC,"[3]; Staphylococcus aureus, HIP07930, VI-MRSA, America",16 µg/mL
same,MIC,"[3]; Staphylococcus aureus, HIP08926, VI-MRSA, America",16 µg/mL
same,MIC,"[3]; Staphylococcus aureus, HIP09143, VI-MRSA, America",16 µg/mL
same,MIC,"[3]; Staphylococcus aureus, HIP09313, VI-MRSA, America",8 µg/mL
same,MIC,"[3]; Staphylococcus aureus, HIP09433, VI-MRSA, America",64 µg/mL
same,MIC,"[3]; Staphylococcus aureus, HIP09662, VI-MRSA, America",16 µg/mL
same,MIC,"[3]; Staphylococcus aureus, HIP09735, VI-MRSA, America",16 µg/mL
same,MIC,"[3]; Staphylococcus aureus, HIP09737, VI-MSSA, America",16 µg/mL
same,MIC,"[3]; Staphylococcus aureus, HIP09740, VI-MRSA, America",16 µg/mL
same,MIC,"[3]; Staphylococcus aureus, HIP10267, VI-MRSA, America",16 µg/mL
same,MIC,"[3]; Staphylococcus aureus, HIP10540, VI-MRSA, America",16 µg/mL
same,MIC,"[3]; Staphylococcus aureus, HIP12864, VI-MRSA, America",32 µg/mL
same,MIC,"[3]; Staphylococcus aureus, HIP13036, VI-MRSA, America",4 µg/mL
same,MIC,"[3]; Staphylococcus aureus, HIP13057, VI-MRSA, America",8 µg/mL
same,MIC,"[3]; Staphylococcus aureus, IL (HIP7737), VI-MRSA, America",32 µg/mL
same,MIC,"[3]; Staphylococcus aureus, JCSC7193, VI-MRSA, Thailand",16 µg/mL
same,MIC,"[3]; Staphylococcus aureus, JCSC7195, VI-MRSA, Thailand",32 µg/mL
same,MIC,"[3]; Staphylococcus aureus, JCSC7203, VI-MRSA, Thailand",16 µg/mL
same,MIC,"[3]; Staphylococcus aureus, LIM2, VI-MRSA, France",16 µg/mL
same,MIC,"[3]; Staphylococcus aureus, LY-1999-01, VI-MSSA, Oman",2 µg/mL
same,MIC,"[3]; Staphylococcus aureus, LY-1999-03, VI-MRSA, Oman",8 µg/mL
same,MIC,"[3]; Staphylococcus aureus, MI (HIP5827), VI-MRSA, America",32 µg/mL
same,MIC,"[3]; Staphylococcus aureus, MRSA / MSSA / NRS 76 / VISA, NRS76, VI-MSSA, America",32 µg/mL
same,MIC,"[3]; Staphylococcus aureus, MRSA / MSSA / NRS 79 / VISA, NRS79, VI-MRSA, America",16 µg/mL
same,MIC,"[3]; Staphylococcus aureus, MRSA / MSSA / NRS 118 / VISA, NRS118, VI-MRSA, America",32 µg/mL
same,MIC,"[3]; Staphylococcus aureus, MRSA / MSSA / NRS 126 / VISA, NRS126, VI-MRSA, America",8 µg/mL
same,MIC,"[3]; Staphylococcus aureus, Mu3, VI-MRSA, Japan",16 µg/mL
same,MIC,"[3]; Staphylococcus aureus, Mu50, VI-MRSA, Japan",16 µg/mL
same,MIC,"[3]; Staphylococcus aureus, NJ (HIP5836), VI-MRSA, America",32 µg/mL
same,MIC,"[3]; Staphylococcus aureus, P1V44, VI-MSSA, Belgium",4 µg/mL
same,MIC,"[3]; Staphylococcus aureus, PC, VI-MRSA, America",16 µg/mL
same,MIC,"[3]; Staphylococcus aureus, SA MER-S6, VI-MSSA, France",0.25 µg/mL
same,MIC,"[3]; Staphylococcus aureus, SA MER-S12, VI-MSSA, France",0.25 µg/mL
same,MIC,"[3]; Staphylococcus aureus, SA MER-S20, VI-MSSA, France",0.125 µg/mL
same,MIC,"[4]; E. faecalis 36-15672, quinolone-susceptible enterococci",1 µg/mL
same,MIC,"[4]; E. faecalis 36-15673, quinolone-susceptible enterococci",1 µg/mL
same,MIC,"[4]; E. faecalis 36-15678, quinolone-susceptible enterococci",0.5 µg/mL
same,MIC,"[4]; E. faecalis 36-15686, quinolone-resistant enterococci",128 µg/mL
same,MIC,"[4]; E. faecalis 36-15688, quinolone-susceptible enterococci",0.5 µg/mL
same,MIC,"[4]; E. faecalis 36-15694, quinolone-resistant enterococci",64 µg/mL
same,MIC,"[4]; E. faecalis 36-15696, quinolone-susceptible enterococci",0.5 µg/mL
same,MIC,"[4]; E. faecalis 36-15703, quinolone-resistant enterococci",32 µg/mL
same,MIC,"[4]; E. faecalis 36-15716, quinolone-resistant enterococci",64 µg/mL
same,MIC,"[4]; E. faecalis 36-15718, quinolone-susceptible enterococci",0.5 µg/mL
same,MIC,"[4]; E. faecalis 36-15720, quinolone-susceptible enterococci",1 µg/mL
same,MIC,"[4]; E. faecalis 36-15722, quinolone-resistant enterococci",64 µg/mL
same,MIC,"[4]; E. faecalis 36-15726, quinolone-resistant enterococci",64 µg/mL
same,MIC,"[4]; E. faecalis 36-15730, quinolone-susceptible enterococci",1 µg/mL
same,MIC,"[4]; E. faecalis 36-15736, quinolone-susceptible enterococci",0.5 µg/mL
same,MIC,"[4]; E. faecalis 36-15741, quinolone-susceptible enterococci",1 µg/mL
same,MIC,"[4]; NCTC 12201 / VRE, E. faecalis NCTC12201, vancomycin-resistant (VRE), quinolone-susceptible enterococci",0.5 µg/mL
same,MIC,"[4]; NCTC 12203 / VRE, E. faecalis NCTC12203, vancomycin-resistant (VRE), quinolone-susceptible enterococci",0.5 µg/mL
